The source made the active and inactive calls. The rule behind the calls is not given here.
What was measured:
[1] = molecular target: Sodium-dependent dopamine transporter (Homo sapiens, UniProt Q01959); test: GPCRScan assay: inhibition of DAT; parameters: radioligand conc. used [nm] 3.6 – 16.0, parental cells stable HEK
[2] = molecular target: T1, Methionine aminopeptidase 2 (Homo sapiens, UniProt P50579); test: METAP2 biochemical assay (human)
[3] = molecular target: T1, Methionine aminopeptidase 2; test: Degradation in HT1080 cells (CE) (Capillary electrophoresis (CE)); assay type: functional, cell-based; conditions: ht-1080
[4] = molecular target: T1, Methionine aminopeptidase 2; test: Degradation in HUVEC cells (WB) (Western Blot (WB)); assay type: functional, cell-based
[5] = molecular target: Hepatocyte growth factor receptor (Homo sapiens) (UniProt P08581); test: Inhibition of Met(h) at 10.0 µM in the Eurofins Kinase panel; conditions: Compound concentration 10.0 uM
[6] = molecular target: Dual specificity protein kinase CLK1 (Homo sapiens) (UniProt P49759); test: Inhibition of CLK1(h) at 10.0 µM in the Eurofins Kinase panel; conditions: Compound concentration 10.0 uM
[7] = molecular target: Death-associated protein kinase 3 (Homo sapiens) (UniProt O43293); test: Inhibition of ZIPK(h) at 10.0 µM in the Eurofins Kinase panel; conditions: Compound concentration 10.0 uM
[8] = molecular target: Carbonic anhydrase 2 (Homo sapiens) (UniProt P00918); test: Inhibition of Carbonic Anhydrase II at 10.0 µM in the Eurofins Panlabs Safety Screen; conditions: Compound concentration 10.0 uM
[9] = molecular target: Prostaglandin G/H synthase 2 (Homo sapiens) (UniProt P35354); test: Inhibition of Cyclooxygenase COX-2 at 10.0 µM in the Eurofins Panlabs Safety Screen; conditions: Compound concentration 10.0 uM
[10] = molecular target: Monoamine oxidase B (MAO-B) (Homo sapiens, UniProt P27338); test: Inhibition of Monoamine Oxidase MAO-B at 10.0 µM in the Eurofins Panlabs Safety Screen; conditions: compound concentration 10 uM
[11] = molecular target: Nitric oxide synthase, inducible (Homo sapiens) (UniProt P35228); test: Inhibition of Nitric Oxide Synthetase, Inducible (iNOS) at 10.0 µM in the Eurofins Panlabs Safety Screen; conditions: Mus musculus; Compound concentration 10.0 uM
[12] = molecular target: Beta-1 adrenergic receptor (Homo sapiens) (UniProt P08588); test: Inhibition of Adrenergic beta1 at 10.0 µM in the Eurofins Panlabs Safety Screen; conditions: Compound concentration 10.0 uM
[13] = molecular target: Beta-2 adrenergic receptor (Homo sapiens) (UniProt P07550); test: Inhibition of Adrenergic beta2 at 10.0 µM in the Eurofins Panlabs Safety Screen; conditions: Compound concentration 10.0 uM
[14] = molecular target: Androgen receptor (Homo sapiens) (UniProt P10275); test: Inhibition of Androgen (Testosterone) at 10.0 µM in the Eurofins Panlabs Safety Screen; conditions: Compound concentration 10.0 uM
[15] = molecular target: B2 bradykinin receptor (Homo sapiens) (UniProt P30411); test: Inhibition of Bradykinin B2 at 10.0 µM in the Eurofins Panlabs Safety Screen; conditions: Compound concentration 10.0 uM
[16] = molecular target: Glutamate receptor ionotropic, kainate 2 (Homo sapiens) (UniProt Q13002); test: Inhibition of Glutamate, Kainate at 10.0 µM in the Eurofins Panlabs Safety Screen; conditions: Rattus norvegicus; Compound concentration 10.0 uM
[17] = molecular target: Motilin receptor (Homo sapiens) (UniProt O43193); test: Inhibition of Motilin at 10.0 µM in the Eurofins Panlabs Safety Screen; conditions: Compound concentration 10.0 uM
[18] = molecular target: 5-hydroxytryptamine receptor 5A (Homo sapiens) (UniProt P47898); conditions: Compound concentration 10.0 uM
[19] = molecular target: D(2) dopamine receptor (Homo sapiens) (UniProt P14416); conditions: Compound concentration 10.0 uM
[20] = molecular target: D(3) dopamine receptor (Homo sapiens, UniProt P35462); conditions: Compound concentration 10.0 uM
[21] = molecular target: Histamine H1 receptor (Homo sapiens) (UniProt P35367); conditions: Compound concentration 10.0 uM
[22] = molecular target: Histamine H4 receptor (Homo sapiens) (UniProt Q9H3N8); conditions: Compound concentration 10.0 uM
[23] = molecular target: T2, Alpha-2A adrenergic receptor (Homo sapiens) (UniProt P08913); conditions: Compound concentration 10.0 uM
T2 sequence (whole entry): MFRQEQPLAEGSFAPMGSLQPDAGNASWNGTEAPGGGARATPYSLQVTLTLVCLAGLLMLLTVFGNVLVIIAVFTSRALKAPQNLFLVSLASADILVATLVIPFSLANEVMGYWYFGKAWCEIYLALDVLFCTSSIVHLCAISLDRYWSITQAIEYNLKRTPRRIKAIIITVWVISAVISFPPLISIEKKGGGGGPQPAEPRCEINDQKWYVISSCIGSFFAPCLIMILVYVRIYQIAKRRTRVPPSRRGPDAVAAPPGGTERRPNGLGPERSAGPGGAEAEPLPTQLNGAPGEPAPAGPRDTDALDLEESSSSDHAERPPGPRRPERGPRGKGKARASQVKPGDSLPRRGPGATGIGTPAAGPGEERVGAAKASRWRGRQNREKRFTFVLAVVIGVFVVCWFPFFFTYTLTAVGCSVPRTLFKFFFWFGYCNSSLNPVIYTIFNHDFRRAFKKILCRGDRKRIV

[24] = molecular target: T3, Alpha-2C adrenergic receptor (Homo sapiens) (UniProt P18825); conditions: Compound concentration 10.0 uM
T3 sequence (whole entry): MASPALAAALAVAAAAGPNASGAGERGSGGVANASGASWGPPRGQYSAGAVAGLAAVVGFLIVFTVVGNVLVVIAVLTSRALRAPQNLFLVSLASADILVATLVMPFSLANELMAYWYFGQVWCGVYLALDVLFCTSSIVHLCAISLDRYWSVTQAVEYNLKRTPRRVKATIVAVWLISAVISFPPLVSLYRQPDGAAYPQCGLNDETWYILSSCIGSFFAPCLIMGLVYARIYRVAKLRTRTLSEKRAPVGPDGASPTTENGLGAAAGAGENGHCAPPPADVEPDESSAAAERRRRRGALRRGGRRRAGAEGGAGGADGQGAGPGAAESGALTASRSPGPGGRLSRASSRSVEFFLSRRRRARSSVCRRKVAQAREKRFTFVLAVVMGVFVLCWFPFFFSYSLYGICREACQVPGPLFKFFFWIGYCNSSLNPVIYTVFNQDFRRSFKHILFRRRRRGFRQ

[25] = molecular target: Beta-2 adrenergic receptor (Homo sapiens) (UniProt P07550); conditions: Compound concentration 10.0 uM
[26] = molecular target: Muscarinic acetylcholine receptor M3 (Homo sapiens, UniProt P20309); conditions: Compound concentration 10.0 uM
[27] = molecular target: Muscarinic acetylcholine receptor M5 (Homo sapiens) (UniProt P08912); conditions: Compound concentration 10.0 uM
[28] = molecular target: GABA-A receptor; anion channel (Rattus norvegicus) (UniProt O09028+P15431+P18506+P18508+P19969+P20236+P23574+P23576+P28471+P28473+P30191+P62813+P63079+P63138+Q91ZM7+Q9ES14); conditions: Compound concentration 10.0 uM
[29] = molecular target: Sigma non-opioid intracellular receptor 1 (Homo sapiens) (UniProt Q99720); conditions: Compound concentration 10.0 uM
Chain of Sigma non-opioid intracellular receptor 1 (Homo sapiens) (Q99720 whole entry): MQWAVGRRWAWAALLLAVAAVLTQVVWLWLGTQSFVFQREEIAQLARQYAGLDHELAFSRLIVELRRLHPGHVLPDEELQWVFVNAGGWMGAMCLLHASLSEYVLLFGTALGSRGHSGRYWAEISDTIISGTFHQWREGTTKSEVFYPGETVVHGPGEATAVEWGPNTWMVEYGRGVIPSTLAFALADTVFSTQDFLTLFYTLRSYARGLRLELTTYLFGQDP

Chain of D(2) dopamine receptor (Homo sapiens) (P14416 whole entry): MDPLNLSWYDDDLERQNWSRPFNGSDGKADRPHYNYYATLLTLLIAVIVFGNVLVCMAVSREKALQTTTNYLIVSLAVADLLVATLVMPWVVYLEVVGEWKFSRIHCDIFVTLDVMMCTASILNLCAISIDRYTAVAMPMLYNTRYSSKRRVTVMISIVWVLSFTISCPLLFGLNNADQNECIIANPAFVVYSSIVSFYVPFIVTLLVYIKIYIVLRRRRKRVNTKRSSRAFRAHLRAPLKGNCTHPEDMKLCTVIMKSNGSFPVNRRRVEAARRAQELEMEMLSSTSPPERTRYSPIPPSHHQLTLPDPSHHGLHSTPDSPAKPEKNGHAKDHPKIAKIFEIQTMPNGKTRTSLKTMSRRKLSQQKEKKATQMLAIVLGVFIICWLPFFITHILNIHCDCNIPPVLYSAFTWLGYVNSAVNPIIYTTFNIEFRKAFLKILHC
Chain of Histamine H1 receptor (Homo sapiens) (P35367 whole entry): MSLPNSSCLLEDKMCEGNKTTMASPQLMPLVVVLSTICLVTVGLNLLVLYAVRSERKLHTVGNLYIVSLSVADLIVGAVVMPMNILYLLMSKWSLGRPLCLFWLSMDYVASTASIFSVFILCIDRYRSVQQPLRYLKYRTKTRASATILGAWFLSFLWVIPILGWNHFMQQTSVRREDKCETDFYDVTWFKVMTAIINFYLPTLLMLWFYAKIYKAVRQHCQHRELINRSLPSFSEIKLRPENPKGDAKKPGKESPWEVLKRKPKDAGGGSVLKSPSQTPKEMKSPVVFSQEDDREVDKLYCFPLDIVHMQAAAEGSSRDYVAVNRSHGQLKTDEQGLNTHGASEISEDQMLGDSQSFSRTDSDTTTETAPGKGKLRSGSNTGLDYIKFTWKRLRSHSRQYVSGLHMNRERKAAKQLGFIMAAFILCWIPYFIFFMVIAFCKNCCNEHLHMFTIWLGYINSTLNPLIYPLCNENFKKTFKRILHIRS
T1 sequence (P50579 whole entry): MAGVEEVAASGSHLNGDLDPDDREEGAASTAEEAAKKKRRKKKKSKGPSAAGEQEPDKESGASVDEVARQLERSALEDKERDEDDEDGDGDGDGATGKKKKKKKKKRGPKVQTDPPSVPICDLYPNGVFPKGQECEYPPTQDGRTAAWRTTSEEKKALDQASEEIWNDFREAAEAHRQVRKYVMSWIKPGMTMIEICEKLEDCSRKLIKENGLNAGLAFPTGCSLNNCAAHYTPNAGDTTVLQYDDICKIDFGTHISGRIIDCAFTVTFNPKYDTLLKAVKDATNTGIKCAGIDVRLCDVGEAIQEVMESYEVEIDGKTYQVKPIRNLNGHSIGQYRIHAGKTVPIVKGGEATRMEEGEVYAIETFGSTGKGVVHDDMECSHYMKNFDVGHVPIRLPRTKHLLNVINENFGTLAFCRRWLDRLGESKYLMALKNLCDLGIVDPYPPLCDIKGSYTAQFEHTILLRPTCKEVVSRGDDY
Chain of Sodium-dependent dopamine transporter (Q01959 whole entry): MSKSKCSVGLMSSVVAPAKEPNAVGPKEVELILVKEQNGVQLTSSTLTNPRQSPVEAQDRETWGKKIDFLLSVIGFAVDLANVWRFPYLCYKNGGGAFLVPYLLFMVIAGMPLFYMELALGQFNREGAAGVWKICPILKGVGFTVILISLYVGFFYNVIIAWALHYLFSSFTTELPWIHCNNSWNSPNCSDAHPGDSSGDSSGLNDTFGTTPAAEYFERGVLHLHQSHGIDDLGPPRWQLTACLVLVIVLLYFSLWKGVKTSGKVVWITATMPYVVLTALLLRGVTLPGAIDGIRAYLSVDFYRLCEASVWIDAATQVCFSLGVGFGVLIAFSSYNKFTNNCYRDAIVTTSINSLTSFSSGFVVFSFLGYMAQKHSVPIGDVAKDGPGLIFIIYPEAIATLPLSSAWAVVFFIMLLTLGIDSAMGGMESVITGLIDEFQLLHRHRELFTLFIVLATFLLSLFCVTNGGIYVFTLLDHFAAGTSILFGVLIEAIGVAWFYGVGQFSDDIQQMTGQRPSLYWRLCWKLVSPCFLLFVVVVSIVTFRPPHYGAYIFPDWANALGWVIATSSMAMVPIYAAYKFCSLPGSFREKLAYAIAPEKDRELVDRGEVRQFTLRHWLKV
Chain of 5-hydroxytryptamine receptor 5A (Homo sapiens) (P47898 whole entry): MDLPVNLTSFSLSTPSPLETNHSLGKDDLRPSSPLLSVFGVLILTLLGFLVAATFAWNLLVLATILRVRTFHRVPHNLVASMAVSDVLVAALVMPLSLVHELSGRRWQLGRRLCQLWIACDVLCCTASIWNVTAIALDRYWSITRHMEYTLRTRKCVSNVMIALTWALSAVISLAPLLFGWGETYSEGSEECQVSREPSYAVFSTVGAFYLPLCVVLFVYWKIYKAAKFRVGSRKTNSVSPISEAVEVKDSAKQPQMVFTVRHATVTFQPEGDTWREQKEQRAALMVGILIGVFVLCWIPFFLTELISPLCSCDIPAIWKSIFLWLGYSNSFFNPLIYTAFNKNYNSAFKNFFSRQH
Chain of Muscarinic acetylcholine receptor M3 (P20309 whole entry, looked up): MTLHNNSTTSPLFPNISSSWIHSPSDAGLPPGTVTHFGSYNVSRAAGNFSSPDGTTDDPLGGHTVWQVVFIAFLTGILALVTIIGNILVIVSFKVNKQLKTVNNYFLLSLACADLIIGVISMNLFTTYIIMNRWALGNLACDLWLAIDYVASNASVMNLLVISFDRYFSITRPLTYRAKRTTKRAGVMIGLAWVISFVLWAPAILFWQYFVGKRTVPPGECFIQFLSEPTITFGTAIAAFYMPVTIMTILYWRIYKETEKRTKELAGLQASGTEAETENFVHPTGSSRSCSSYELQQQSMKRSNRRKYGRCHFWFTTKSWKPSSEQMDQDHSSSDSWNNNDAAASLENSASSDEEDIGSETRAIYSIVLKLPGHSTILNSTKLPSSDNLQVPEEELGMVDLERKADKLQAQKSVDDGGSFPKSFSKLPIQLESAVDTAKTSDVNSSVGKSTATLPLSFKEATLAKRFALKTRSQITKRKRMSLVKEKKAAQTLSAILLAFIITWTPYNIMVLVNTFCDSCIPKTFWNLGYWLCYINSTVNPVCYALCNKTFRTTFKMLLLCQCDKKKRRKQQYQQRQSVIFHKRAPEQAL
Chain of D(3) dopamine receptor (P35462 whole entry): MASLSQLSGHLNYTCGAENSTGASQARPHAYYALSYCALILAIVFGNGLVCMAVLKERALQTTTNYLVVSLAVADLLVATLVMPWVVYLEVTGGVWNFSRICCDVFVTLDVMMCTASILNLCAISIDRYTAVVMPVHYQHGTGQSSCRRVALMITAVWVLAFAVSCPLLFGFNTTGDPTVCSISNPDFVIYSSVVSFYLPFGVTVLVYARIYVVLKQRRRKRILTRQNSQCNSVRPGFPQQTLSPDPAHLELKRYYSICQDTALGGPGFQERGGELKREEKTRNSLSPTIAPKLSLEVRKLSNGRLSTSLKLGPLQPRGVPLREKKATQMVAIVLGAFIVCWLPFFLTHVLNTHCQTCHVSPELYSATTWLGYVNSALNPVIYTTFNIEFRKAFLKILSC
Chain of Beta-2 adrenergic receptor (Homo sapiens) (P07550 whole entry, looked up): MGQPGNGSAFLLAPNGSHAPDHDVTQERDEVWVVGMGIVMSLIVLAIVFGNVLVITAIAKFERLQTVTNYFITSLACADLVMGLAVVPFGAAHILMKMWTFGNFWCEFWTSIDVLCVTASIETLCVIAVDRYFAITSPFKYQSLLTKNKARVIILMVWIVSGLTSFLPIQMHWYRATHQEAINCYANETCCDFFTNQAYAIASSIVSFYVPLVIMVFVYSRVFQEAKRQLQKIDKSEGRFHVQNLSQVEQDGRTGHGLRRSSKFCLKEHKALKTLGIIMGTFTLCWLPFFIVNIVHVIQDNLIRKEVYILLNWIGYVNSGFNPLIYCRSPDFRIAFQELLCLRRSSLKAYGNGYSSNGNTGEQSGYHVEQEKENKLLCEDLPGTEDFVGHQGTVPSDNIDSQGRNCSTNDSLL
Chain of Histamine H4 receptor (Homo sapiens) (Q9H3N8 whole entry): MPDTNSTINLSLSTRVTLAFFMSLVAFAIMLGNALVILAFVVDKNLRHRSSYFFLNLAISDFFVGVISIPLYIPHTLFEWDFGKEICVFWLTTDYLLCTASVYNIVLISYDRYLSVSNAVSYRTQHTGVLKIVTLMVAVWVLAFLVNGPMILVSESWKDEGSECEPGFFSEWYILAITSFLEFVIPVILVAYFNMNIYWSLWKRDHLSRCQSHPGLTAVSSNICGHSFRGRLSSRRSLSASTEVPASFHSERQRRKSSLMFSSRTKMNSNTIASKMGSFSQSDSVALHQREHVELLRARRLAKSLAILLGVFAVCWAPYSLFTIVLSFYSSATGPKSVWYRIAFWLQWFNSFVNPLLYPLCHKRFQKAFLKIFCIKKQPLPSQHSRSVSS
Chain of Muscarinic acetylcholine receptor M5 (Homo sapiens) (P08912 whole entry): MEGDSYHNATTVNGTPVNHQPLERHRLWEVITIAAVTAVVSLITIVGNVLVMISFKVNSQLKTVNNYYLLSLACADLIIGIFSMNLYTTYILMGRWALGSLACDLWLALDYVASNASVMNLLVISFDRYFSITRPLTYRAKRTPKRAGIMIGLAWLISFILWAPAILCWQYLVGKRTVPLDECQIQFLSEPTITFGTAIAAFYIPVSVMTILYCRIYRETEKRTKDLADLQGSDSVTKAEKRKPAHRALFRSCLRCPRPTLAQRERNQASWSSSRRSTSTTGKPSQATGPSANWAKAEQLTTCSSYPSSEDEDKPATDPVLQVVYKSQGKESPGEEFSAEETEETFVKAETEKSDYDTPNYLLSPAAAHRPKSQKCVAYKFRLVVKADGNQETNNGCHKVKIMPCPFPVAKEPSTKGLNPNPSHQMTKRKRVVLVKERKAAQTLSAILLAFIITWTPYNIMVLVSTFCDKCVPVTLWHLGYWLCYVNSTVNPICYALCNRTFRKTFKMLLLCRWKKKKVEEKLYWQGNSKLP

SMILES	Ki ([1]; read-out: Ki)	Ki ([1]; read-out: pKi (converted))	IC50 [2]	DC50 [3]	DC50 [4]	inhibition [5]	inhibition [6]	inhibition [7]	inhibition [8]	inhibition [9]	inhibition at 10 µM [10]	inhibition [11]	inhibition [12]	inhibition [13]	inhibition [14]	inhibition [15]	inhibition [16]	inhibition [17]	inhibition [18]	inhibition [19]	further results
O=C1NCCCC1N1Cc2cc(C3CCN(C(=O)CCCCCN4CCC(c5ccc(Oc6nn7cnnc7c7c6CCCC7)cc5)CC4)CC3)ccc2C1=O (stereo not given)	4.81 µM	4.47 µM	0.0057 µM	> 1 µM (not active)	> 0.1 µM (not active)	16.9%	16.7%	15.9%	-8%	-7%	30%	-3%	10%	13%	-2%	13%	1%	10%	14%	21.7%	inhibition [20]: 68.3%; inhibition [21]: 14.2%; inhibition [22]: -3.44%; inhibition [23]: 29.3%; inhibition [24]: 27.5%; inhibition [25]: -7.69%; inhibition [26]: 51.5%; inhibition [27]: 41.8%; inhibition [28]: 44.6%; inhibition [29]: 28.4%
O=C1CCC(N2Cc3cc(C4CCN(C(=O)CCCCCN5CCC(c6ccc(Oc7nn8cnnc8c8c7CCCC8)cc6)CC5)CC4)ccc3C2=O)C(=O)N1 (stereo not given)	3.73 µM	3.39 µM	0.0058 µM (active)	0.00893 µM (active)	0.0002 µM (active)	22.7%	13.9%	11.7%	-8%	-6%	34%	0%	0%	-4%	-6%	10%	-2%	6%	10.1%	20.9%	inhibition [20]: 25.6%; inhibition [21]: 10.3%; inhibition [22]: -8.84%; inhibition [23]: 33.1%; inhibition [24]: 47.9%; inhibition [25]: 2.82%; inhibition [26]: 55%; inhibition [27]: 71%; inhibition [28]: 36.6%; inhibition [29]: 28.9%

From ChEMBL document CHEMBL5463725, “Data for DCP probe BAY-277” (2023)
